Where a SMILES comes first, the peptide text is derived from it.
Experiments:
Plasmin (PL) = Plasmin (PL) (Sus scrofa, UniProt P06867); type: biochemical, Pig; settings: TABLE 3, PNA substrates; So = 0.54 mmole/l; pH 7.4; 37° C., 10 minutes; 0.32 CU/ml
Description: (§1) (1) Substrate solution concentration: 35 mmole/liter H2 O
(§2) (2) Buffer: Tris-hydrochloric acid buffer 50 mmole/l, NaCl 150 mmole/l (0.875%) was employed, and the pH for reaction was as follows depending on the enzyme.
Plasmin Pig Sigma (U.S.A.)
(§3) 0.5 ml of the buffer solution and 0.05 ml of the enzyme reagent were taken into a silicon-treated hard glass test tube or a plastic test tube, and preheated in a constant temperature bath at 37° C. for 5 minutes. Thereafter, 0.1 ml of the substrate solution was added to effect the enzymatic reaction at 37° C. for 10 minutes. Exactly after 10 minutes, 2.5 ml of the reaction terminating solution or the terminating and color developing reagent solution was added to terminate the enzymatic reaction, and after allowing to stand at 25° C. for 10 minutes, the absorbance at 405 nm or 645 nm was measured, in which [drawing 49]

Thrombin (TH) = Thrombin (TH) (Bos taurus, UniProt P00735); type: biochemical, Cow; settings: TABLE 3, PNA substrates; So = 0.54 mmole/l; pH 8.4; 37° C., 10 minutes; 1.0 NIH/ml
Description: (§4) The specificities of the novelly synthesized substrates were tested by reacting them with various enzymes respectively.
as §1, §2
(§5) 2,6-Xylenol 7.0 mmole+NaIO4 1.5 mmole/0.2N KOH
as §3

Kallikrein (KL) = Kallikrein (KL) (Sus scrofa, UniProt P00752); type: biochemical, Pig; settings: TABLE 3, PNA substrates; So = 0.54 mmole/l; pH 7.9; 37° C., 10 minutes; 1.0 BAEE-U/ml
Chain of Kallikrein (KL) (P00752 8-246): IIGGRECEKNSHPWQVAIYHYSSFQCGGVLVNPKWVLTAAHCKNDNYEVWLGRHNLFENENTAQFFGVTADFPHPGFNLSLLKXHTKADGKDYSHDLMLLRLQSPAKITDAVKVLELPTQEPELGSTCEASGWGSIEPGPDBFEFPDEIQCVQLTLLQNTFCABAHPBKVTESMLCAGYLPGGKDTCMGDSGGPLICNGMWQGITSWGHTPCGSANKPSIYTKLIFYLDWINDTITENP
Description: as §4, §1, §2, §5, §3

[1] = tested on: coagulation and linear dissolution related enzymes such as thrombin, Factor Xa, UK; settings: prior substrate, cited from earlier work
Factor-Xa (FXa) = Factor-Xa (FXa) (Bos taurus, UniProt P00743); type: biochemical, Cow; settings: TABLE 3, PNA substrates; So = 0.54 mmole/l; pH 8.4; 37° C., 10 minutes; 0.4 U/ml
Chain of Factor-Xa (FXa) (P00743 41-180): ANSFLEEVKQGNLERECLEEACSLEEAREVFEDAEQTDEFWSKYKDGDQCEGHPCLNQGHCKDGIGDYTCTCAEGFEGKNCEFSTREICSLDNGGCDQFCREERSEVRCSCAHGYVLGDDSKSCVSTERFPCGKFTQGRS
Chain of Factor-Xa (FXa) (P00743 234-492): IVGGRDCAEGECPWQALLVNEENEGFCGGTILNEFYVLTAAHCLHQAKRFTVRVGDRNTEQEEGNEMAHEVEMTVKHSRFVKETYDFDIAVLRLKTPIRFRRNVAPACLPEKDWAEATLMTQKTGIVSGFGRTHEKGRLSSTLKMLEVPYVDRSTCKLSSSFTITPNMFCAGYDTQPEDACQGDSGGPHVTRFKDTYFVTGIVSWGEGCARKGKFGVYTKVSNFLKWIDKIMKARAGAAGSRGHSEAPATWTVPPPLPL
Description: as §4, §1, §2, §5, §3

Urokinase (UK) = Urokinase (UK) (Homo sapiens, UniProt P00749); type: biochemical; settings: TABLE 3, PNA substrates; So = 0.54 mmole/l; pH 8.2; 37° C., 10 minutes; 1000 IU/ml
Description: as §4, §1, §2, §5, §3

plasmin (pig) [2] = molecular target: T1, plasmin (pig) (Sus scrofa, UniProt P06867); experiment: Km, Vmax and Vmax/Km of substrates for plasmin (pig); type: biochemical, Porcine (pig); settings: for Vmax (× 10^-6) [mole/min/Cu]: Porcine Plasmin, comparison table in description; for V/Km (× 10^-3) / Vmax (× 10^7): TABLE 1, PNA substrates, plasmin (pig); for Vmax (× 10^7): 405 nm; for Relative ratio: TABLE 1, V/Km of each sample divided by that of S2251
T1 sequence (P06867 97-809): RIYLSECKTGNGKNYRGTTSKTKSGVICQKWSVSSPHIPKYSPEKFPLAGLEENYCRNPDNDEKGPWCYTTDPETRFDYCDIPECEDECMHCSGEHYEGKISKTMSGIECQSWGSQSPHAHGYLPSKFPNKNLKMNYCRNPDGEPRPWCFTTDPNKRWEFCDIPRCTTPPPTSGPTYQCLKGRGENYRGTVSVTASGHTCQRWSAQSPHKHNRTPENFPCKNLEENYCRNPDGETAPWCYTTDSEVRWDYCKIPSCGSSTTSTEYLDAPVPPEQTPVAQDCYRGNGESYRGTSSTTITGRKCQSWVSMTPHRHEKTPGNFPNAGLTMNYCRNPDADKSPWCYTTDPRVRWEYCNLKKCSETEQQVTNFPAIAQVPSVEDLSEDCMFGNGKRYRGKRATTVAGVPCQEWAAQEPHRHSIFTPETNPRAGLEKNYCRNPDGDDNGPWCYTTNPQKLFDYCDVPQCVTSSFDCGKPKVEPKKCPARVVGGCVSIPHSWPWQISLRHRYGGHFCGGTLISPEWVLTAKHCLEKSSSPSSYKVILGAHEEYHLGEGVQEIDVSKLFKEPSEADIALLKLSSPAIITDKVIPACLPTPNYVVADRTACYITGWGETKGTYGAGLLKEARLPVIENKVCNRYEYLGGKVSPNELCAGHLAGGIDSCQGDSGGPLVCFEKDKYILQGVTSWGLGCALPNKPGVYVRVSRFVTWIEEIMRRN
Excerpt: The substrates produced by the above examples were used in the measurement of plasmin as follows: The principle of this measurement comprises quantitatively analyzing the decomposition product p-nitroaniline or 3-carboxy-4-hydroxyaniline produced by the enzymatic hydrolysis, by measuring the absorbance (O.D.) directly at 405 nm in the case of p-nitroaniline and, in the case of the 3-carboxy-4-hydroxyaniline at 615 nm after condensing it with 2,6-xylenol in the presence of an oxidant to develop a color.
For the measurements of these constants, the following method is adopted:
The enzyme and the substrate are mixed in a buffer solution and subjected to the hydrolysis for 30 seconds. The concentration of the substrate [S] is changed and the enzyme concentration is maintained constant. By measuring the absorbance (O.D.), the initial velocity of the hydrolysis can be determined. Where 1/V is plotted as a function of 1/[S], there is obtained a Lineweaver and Burk's linea from which graph the Vmax and Km can be determined.

plasmin (pig) [3] = molecular target: T1, plasmin (pig); settings: prior substrate; enzyme not stated in the sentence (plasmin substrates); cited from earlier work
Human Thrombin = settings: read-out: Michaelis's constant (Km); cited from earlier work
Human Plasmin = settings: read-out: Michaelis's constant (Km); cited from earlier work

Chain of Thrombin (TH) (P00735 44-625): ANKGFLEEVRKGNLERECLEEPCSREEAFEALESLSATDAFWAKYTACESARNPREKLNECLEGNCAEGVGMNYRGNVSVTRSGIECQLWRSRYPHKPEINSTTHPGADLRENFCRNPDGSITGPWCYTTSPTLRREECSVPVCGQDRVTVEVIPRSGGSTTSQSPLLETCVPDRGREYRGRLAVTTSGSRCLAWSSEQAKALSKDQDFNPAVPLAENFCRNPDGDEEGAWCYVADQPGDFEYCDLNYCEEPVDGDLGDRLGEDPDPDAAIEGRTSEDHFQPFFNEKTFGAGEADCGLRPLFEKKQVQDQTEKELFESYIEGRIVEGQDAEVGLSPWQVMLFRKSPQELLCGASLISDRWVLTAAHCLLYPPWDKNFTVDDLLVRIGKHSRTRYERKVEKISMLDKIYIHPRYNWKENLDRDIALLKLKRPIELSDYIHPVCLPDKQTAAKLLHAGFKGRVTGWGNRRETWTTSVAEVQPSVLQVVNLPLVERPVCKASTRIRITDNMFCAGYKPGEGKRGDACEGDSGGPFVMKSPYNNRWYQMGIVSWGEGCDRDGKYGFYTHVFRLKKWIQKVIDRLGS
Chain of Plasmin (PL) (P06867 97-809): as the sequence (P06867 97-809) above

Structure (SMILES) | Selectivity PL, absorbance (O.D.) at 405 nm (Plasmin (PL)) | Selectivity TH, absorbance (O.D.) at 405 nm (Thrombin (TH)) | Selectivity KL, absorbance (O.D.) at 405 nm (Kallikrein (KL)) | reaction with coagulation and linear dissolution related enzymes such as thrombin, Factor Xa, UK ([1]; in words) | Selectivity FXa, absorbance (O.D.) at 405 nm (Factor-Xa (FXa)) | Selectivity UK, absorbance (O.D.) at 405 nm (Urokinase (UK)) | Vmax (× 10^-6) [mole/min/Cu] (plasmin (pig) [2]) | V/Km (× 10^-3) (plasmin (pig) [2]) | Vmax (× 10^7) (plasmin (pig) [2]) | Relative ratio (plasmin (pig) [2]) | Km value compared with S-2251 (in words) (plasmin (pig) [3]) | Km (Human Thrombin) | selectivity (in words) [1] | Km (Human Plasmin)
Cc1ccc(S(=O)(=O)NCC(=O)N2CCC[C@H]2C(=O)N[C@@H](CCCCN)C(=O)Nc2ccc([N+](=O)[O-])cc2)cc1 [CHR-PL, Tos-Gly-Pro-Lys-PNA, reference compound] (HELM PEPTIDE1{[Cc1ccc(S(=O)(=O)[*:2])cc1].G.P.K.[O=[N+]([O-])c1ccc(N[*:1])cc1]}$$$$V2.0) | 0.647 O.D. | 0.057 O.D. | 0.004 O.D. | considerably reacts | 0.026 O.D. | 0.069 O.D. | 6.0 × 10^-6 mole/min/Cu | 21.628 × 10^-3 | 60.067 × 10^7 | 1.889 | smaller than that of S-2251 |  |  | 
Cc1ccc(C(=O)NCCCC[C@@H](N)C(=O)N[C@@H](Cc2ccccc2)C(=O)N[C@@H](CCCCN)C(=O)Nc2ccc([N+](=O)[O-])cc2)cc1 [NPN-10] | 0.335 O.D. | 0.001 O.D. | 0.011 O.D. |  | 0.006 O.D. | 0.001 O.D. |  |  | 26.218 × 10^7 | 14.764 |  |  |  | 
NCCCC[C@H](NC(=O)[C@H](Cc1ccccc1)NC(=O)[C@H](N)CCCCNS(=O)(=O)c1ccc2ccccc2c1)C(=O)Nc1ccc([N+](=O)[O-])cc1 [NPN-11] | 0.171 O.D. | 0 O.D. | 0.001 O.D. |  | 0.005 O.D. | 0.001 O.D. |  |  | 23.895 × 10^7 | 11.660 |  |  |  | 
N=C(N)NCCC[C@H](NC(=O)[C@@H]1CCCCN1C(=O)[C@H](N)Cc1ccccc1)C(=O)Nc1ccc([N+](=O)[O-])cc1 [S-2238] |  |  |  |  |  |  |  |  |  |  |  | 7 µM |  | 
CC(C)C[C@H](NC(=O)[C@H](N)C(C)C)C(=O)N[C@@H](CCCCN)C(=O)Nc1ccc([N+](=O)[O-])cc1 [S-2251, H-D-Val-Leu-Lys-PNA, reference compound] (HELM PEPTIDE1{[dV].L.K.[O=[N+]([O-])c1ccc(N[*:1])cc1]}$$$$V2.0) | 0.306 O.D. | 0.001 O.D. | 0.017 O.D. |  | 0.007 O.D. | 0.001 O.D. | 4.0 × 10^-6 mole/min/Cu | 11.449 × 10^-3 | 39.876 × 10^7 | 1.000 |  |  | comparatively good selectivity | 300 µM

Reference: patent publication US4605614A, “Method for measuring plasmin” (Nitto Boseki Co., Ltd., priority 1981, dated 1986)
